Read-outs that look alike come from different tables or passages of the source.
Assays:
[1] = Bioavailability study: absorption of DDGS phytochemicals in plasma of mice after oral gavage of DDGS extracts; details: oral gavage of 2 mL alcohol extract (AE) or oil extract (OE) of DDGS, plasma sampled at 0, 0.5, 1.0, 3.0, 7.0 and 24 hr, HPLC
Method: (§1) Thirty-six male CD-1 mice (22-24 g) were purchased from Charles River Labs (Wilmington, Mass.). Before the study, they were allowed acclimation for at least 3 days in an SPF facility. Animal housing, handling and procedures were conducted under the protocols or guidelines approved by the Institutional Animal Care and Use Committee (IACUC) of Cephrim Biosciences, Inc. (Woburn, Mass.). Three mice were housed in each cage. The temperature, humidity and light/dark cycle were well maintained at 68-76° F., 40-60% relative humidity, with a 12 h light/dark cycle. Mice were allowed free access to water and food.
(§2) On the first day of the study, the mice were randomly assigned into two groups, alcohol extract (AE, of DDGS) group and oil extract (OE, of DDGS) group. Each group of mice was further divided into 6 subgroups, representing 6 time points (i.e., 0 hr, 0.5 hr, 1.0 hr, 3.0 hr, 7.0 hr and 24 hr). Each of two extracts was given to each group of mice by oral gavage at the dosage of 2 mL for AE and 2 mL for OE. The time of dosing was set as the Time Zero. Blood samples were collected by cardiac puncture and were immediately transferred to a set of heparinized tubes.
(§3) Blood samples at Time-0 hr were collected right before dosing. And at each of rest 5 time points the Time-0.5 hr, -1.0 hr, -3.0 hr, -7.0 hr and −24 hr after the extracts were given, blood samples were collected from each subgroup (n=3). All blood samples were placed on ice after their collection and were spun at 14000 rpm/min. The top plasma were transferred into new pre-labeled tubes and the samples were stored at −70° C. until analysis.
(§4) Mice plasmas (150 pt) were mixed with 600 pt of hexane and shaken at 200 rpm for 10 min. The mixtures were centrifuged at 14,000 rpm for 6 min. The supernatant was evaporated to dryness under nitrogen and replaced with 100 pt of methanol. […]
(§5) Compounds were separated on a C30 reverse-phase column (250×4.6 mm, 5 um) at a flow rate of 1 mL/min. […] The detection was conducted in a fluorescence detector with excitation of 292 nm and emission of 336 nm. […]

[2] = mouse, in vivo, po
Method: as §1, §2, §3, §4, §5

SMILES: Cc1c(O)cc2c(c1C)O[C@](C)(CCC[C@H](C)CCC[C@H](C)CCCC(C)C)CC2 [gamma-tocopherol]
- time of maximal absorption in plasma of mice after gastric infusion [1]: 3 h

SMILES: Cc1c(C)c2c(c(C)c1O)CC[C@@](C)(CCC[C@H](C)CCC[C@H](C)CCCC(C)C)O2 [alpha-tocopherol]
- time of maximal absorption in plasma of mice after gastric infusion [2]: 3 h

SMILES: CC(C)=CCC/C(C)=C/CC/C(C)=C/CC[C@]1(C)CCc2cc(O)cc(C)c2O1 [delta-tocotrienol]
- time of maximal absorption in plasma of mice after gastric infusion [2]: 24 h
